Measured values: article PMC12090182, “Repurposing of the RIPK1-Selective Benzo[1,4]oxazepin-4-one Scaffold for the Development of a Type III LIMK1/2 Inhibitor” (ACS Chemical Biology, 2025)

How the values were obtained:
Assay in all cases: scanMAX KINOMEscan (Eurofins)
Type in all cases: binding
[1] = biological target: CAMK1D (Homo sapiens, UniProt Q8IU85); settings: read-out: Percent Control
Text: (§1) Supplement cb5c00097_si_002.xlsx, sheet "Table S6 (Eurofins Selectivity)" | column: Percent Control

[2] = biological target: ERK4 (Homo sapiens, UniProt P31152); settings: 1000 nM, read-out: Percent Control
Text: as §1

[3] = biological target: HIPK3 (Homo sapiens, UniProt Q9H422); settings: 1000 nM, read-out: Percent Control
Text: as §1

[4] = biological target: MST2 (Homo sapiens, UniProt Q13188); settings: 1000 nM, read-out: Percent Control
Text: as §1

[5] = biological target: MTOR (Homo sapiens, UniProt P42345); settings: compound concentration 100 nM; Entrez MTOR; read-out: Percent Control
Text: as §1

[6] = biological target: MAP3K4 (Homo sapiens, UniProt Q9Y6R4); settings: 1000 nM, read-out: Percent Control
Text: as §1

[7] = biological target: ACVRL1 (Homo sapiens, UniProt P37023); settings: 1000 nM, read-out: Percent Control
Text: as §1

[8] = biological target: MAP4K3 (Homo sapiens, UniProt Q8IVH8); settings: 1000 nM, read-out: Percent Control
Text: as §1

[9] = biological target: MLK1 (Homo sapiens, UniProt P80192); settings: compound concentration 100 nM; Entrez MAP3K9; read-out: Percent Control
Text: as §1

[10] = biological target: ASK1 (Homo sapiens, UniProt Q99683); settings: read-out: Percent Control
Text: as §1

[11] = biological target: MEK2 (Homo sapiens, UniProt P36507); settings: compound concentration 100 nM; Entrez MAP2K2; read-out: Percent Control
Text: as §1

[12] = biological target: RIOK2 (Homo sapiens, UniProt Q9BVS4); settings: compound concentration 100 nM; Entrez RIOK2; read-out: Percent Control
Text: as §1

[13] = biological target: SgK110 (Homo sapiens, UniProt P0C264); settings: compound concentration 100 nM; Entrez SgK110; read-out: Percent Control
Text: as §1

[14] = biological target: PLK2 (Homo sapiens, UniProt Q9NYY3); settings: compound concentration 100 nM; Entrez PLK2; read-out: Percent Control
Text: as §1

[15] = biological target: ADCK4 (Homo sapiens, UniProt Q96D53); settings: 1000 nM, read-out: Percent Control
Text: as §1

[16] = biological target: GRK1 (Homo sapiens, UniProt Q15835); settings: read-out: Percent Control
Text: as §1

[17] = biological target: CHEK1 (Homo sapiens, UniProt O14757); settings: read-out: Percent Control
Text: as §1

[18] = biological target: PFTK1 (Homo sapiens, UniProt O94921); settings: 1000 nM, read-out: Percent Control
Text: as §1

[19] = biological target: CDKL3 (Homo sapiens, UniProt Q8IVW4); settings: read-out: Percent Control
Text: as §1

[20] = biological target: CAMK2A (Homo sapiens, UniProt Q9UQM7); settings: 1000 nM, read-out: Percent Control
Text: as §1

[21] = biological target: TSSK3 (Homo sapiens, UniProt Q96PN8); settings: compound concentration 100 nM; Entrez TSSK3; read-out: Percent Control
Text: as §1

[22] = biological target: IRAK3 (Homo sapiens, UniProt Q9Y616); settings: read-out: Percent Control
Text: as §1

[23] = biological target: CSNK1G1 (Homo sapiens, UniProt Q9HCP0); settings: 1000 nM, read-out: Percent Control
Text: as §1

[24] = biological target: JAK2(JH1domain-catalytic) (Homo sapiens, UniProt O60674); settings: compound concentration 100 nM; Entrez JAK2; read-out: Percent Control
Text: as §1

[25] = biological target: FGFR4 (Homo sapiens, UniProt P22455); settings: 1000 nM, read-out: Percent Control
Text: as §1

[26] = biological target: MAP3K2 (Homo sapiens, UniProt Q9Y2U5); settings: compound concentration 100 nM; Entrez MAP3K2; read-out: Percent Control
Text: as §1

[27] = biological target: BRAF (Homo sapiens, UniProt P15056); settings: 1000 nM, read-out: Percent Control
Text: as §1

[28] = biological target: PIP5K2C (Homo sapiens, UniProt Q8TBX8); settings: 1000 nM, read-out: Percent Control
Text: as §1

[29] = biological target: MRCKB (Homo sapiens, UniProt Q9Y5S2); settings: compound concentration 100 nM; Entrez CDC42BPB; read-out: Percent Control
Text: as §1

[30] = biological target: ADCK3 (Homo sapiens, UniProt Q8NI60); settings: read-out: Percent Control
Text: as §1

[31] = biological target: MET (Homo sapiens, UniProt P08581); settings: 1000 nM, read-out: Percent Control
Text: as §1

[32] = biological target: CDK2 (Homo sapiens, UniProt P24941); settings: 1000 nM, read-out: Percent Control
Text: as §1

[33] = biological target: RIPK2 (Homo sapiens, UniProt O43353); settings: 1000 nM, read-out: Percent Control
Text: as §1

[34] = biological target: TRKB (Homo sapiens, UniProt Q16620); settings: 1000 nM, read-out: Percent Control
Text: as §1

[35] = biological target: AKT1 (Homo sapiens, UniProt P31749); settings: 1000 nM, read-out: Percent Control
Text: as §1

[36] = biological target: MYO3A (Homo sapiens, UniProt Q8NEV4); settings: 1000 nM, read-out: Percent Control
Text: as §1

Sequence of IRAK3 (Q9Y616 whole entry): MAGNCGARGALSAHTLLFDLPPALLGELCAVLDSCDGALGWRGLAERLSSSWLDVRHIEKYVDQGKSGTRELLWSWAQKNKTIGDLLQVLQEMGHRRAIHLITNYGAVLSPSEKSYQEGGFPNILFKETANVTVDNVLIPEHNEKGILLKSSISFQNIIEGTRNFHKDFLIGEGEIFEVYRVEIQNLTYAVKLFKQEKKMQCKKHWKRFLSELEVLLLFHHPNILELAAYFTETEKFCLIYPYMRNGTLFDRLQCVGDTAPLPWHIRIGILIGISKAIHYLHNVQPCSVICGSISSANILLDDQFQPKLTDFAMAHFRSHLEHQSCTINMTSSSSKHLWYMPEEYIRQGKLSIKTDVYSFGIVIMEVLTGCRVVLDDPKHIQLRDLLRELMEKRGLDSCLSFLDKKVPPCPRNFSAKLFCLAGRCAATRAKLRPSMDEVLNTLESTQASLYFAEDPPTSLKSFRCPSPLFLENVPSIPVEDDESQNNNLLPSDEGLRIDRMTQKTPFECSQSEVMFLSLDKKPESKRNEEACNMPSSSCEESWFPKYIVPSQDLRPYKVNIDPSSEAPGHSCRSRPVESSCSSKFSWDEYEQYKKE
Sequence of CAMK1D (Q8IU85 whole entry): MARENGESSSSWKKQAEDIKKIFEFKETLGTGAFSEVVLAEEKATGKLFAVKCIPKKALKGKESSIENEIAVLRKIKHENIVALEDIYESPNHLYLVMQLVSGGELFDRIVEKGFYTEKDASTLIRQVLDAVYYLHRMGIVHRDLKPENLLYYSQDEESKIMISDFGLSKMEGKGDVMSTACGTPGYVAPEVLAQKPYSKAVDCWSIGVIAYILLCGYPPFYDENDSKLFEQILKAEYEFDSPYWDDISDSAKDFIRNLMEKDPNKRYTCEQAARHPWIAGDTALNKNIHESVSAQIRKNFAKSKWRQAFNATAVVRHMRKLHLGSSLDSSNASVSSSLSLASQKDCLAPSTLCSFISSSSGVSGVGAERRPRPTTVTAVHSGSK
Sequence of CDKL3 (Q8IVW4 whole entry): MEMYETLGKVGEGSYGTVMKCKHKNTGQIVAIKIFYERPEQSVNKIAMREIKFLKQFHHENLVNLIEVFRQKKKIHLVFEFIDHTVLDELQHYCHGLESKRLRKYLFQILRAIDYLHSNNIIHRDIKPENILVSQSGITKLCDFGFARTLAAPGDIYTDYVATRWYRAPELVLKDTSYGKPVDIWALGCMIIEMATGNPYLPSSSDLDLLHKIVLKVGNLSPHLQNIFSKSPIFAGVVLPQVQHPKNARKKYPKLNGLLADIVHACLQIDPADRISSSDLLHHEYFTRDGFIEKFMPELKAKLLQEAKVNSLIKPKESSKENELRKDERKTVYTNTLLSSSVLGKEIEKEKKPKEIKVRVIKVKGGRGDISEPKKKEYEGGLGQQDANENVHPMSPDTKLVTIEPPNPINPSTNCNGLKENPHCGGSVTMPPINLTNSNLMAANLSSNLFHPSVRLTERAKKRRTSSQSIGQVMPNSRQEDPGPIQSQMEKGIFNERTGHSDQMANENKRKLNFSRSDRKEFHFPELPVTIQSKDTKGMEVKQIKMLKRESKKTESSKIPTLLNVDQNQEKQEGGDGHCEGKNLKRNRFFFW
Sequence of ASK1 (Q99683 whole entry): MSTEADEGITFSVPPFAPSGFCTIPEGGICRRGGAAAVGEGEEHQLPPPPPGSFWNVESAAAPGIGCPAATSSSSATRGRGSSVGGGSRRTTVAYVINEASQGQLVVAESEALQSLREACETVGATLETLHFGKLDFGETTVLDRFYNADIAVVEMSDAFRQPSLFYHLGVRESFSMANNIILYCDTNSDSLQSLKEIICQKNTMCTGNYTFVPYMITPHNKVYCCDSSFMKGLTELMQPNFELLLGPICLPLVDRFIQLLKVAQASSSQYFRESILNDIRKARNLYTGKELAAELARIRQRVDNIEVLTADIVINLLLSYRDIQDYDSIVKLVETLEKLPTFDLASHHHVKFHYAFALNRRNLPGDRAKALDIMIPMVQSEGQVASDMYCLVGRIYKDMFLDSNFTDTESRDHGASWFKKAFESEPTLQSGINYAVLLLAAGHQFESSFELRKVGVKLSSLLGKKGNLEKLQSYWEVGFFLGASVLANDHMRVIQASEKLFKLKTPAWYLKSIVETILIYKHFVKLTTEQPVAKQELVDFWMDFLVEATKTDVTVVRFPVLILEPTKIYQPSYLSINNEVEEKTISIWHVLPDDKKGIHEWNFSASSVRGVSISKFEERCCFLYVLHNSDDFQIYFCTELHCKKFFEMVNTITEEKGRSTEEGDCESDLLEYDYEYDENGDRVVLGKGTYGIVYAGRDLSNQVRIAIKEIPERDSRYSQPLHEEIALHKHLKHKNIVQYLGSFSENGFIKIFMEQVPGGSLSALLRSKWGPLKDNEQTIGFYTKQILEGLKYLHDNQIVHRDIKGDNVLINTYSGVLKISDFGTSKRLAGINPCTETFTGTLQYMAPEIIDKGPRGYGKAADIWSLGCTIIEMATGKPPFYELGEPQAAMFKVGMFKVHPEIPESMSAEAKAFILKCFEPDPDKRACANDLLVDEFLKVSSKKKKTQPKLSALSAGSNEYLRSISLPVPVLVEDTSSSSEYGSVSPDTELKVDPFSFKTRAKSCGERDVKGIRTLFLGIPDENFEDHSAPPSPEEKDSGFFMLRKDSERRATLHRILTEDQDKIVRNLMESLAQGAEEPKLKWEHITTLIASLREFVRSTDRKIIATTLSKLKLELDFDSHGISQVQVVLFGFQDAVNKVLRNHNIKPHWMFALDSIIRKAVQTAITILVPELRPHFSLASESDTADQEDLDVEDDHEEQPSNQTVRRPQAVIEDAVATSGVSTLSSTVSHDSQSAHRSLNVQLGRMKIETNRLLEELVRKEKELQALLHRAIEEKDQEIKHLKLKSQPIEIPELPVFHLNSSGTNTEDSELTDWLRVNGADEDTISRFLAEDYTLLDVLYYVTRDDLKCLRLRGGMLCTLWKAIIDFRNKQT
Sequence of GRK1 (Q15835 whole entry): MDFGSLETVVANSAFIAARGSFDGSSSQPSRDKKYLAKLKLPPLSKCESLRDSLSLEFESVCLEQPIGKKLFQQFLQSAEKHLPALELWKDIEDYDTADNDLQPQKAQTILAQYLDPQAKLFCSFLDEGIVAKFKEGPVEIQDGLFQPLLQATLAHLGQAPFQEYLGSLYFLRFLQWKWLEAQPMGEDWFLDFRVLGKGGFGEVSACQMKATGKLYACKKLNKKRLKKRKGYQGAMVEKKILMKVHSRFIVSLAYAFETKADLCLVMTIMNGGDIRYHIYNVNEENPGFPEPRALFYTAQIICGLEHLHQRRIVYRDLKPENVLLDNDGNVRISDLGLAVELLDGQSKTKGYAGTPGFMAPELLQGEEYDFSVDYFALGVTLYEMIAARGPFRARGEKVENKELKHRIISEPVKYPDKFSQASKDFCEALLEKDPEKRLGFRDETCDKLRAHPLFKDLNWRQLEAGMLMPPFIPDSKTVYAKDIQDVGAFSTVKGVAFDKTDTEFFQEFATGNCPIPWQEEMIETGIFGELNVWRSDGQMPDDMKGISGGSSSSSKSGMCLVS
Sequence of CHEK1 (O14757 whole entry): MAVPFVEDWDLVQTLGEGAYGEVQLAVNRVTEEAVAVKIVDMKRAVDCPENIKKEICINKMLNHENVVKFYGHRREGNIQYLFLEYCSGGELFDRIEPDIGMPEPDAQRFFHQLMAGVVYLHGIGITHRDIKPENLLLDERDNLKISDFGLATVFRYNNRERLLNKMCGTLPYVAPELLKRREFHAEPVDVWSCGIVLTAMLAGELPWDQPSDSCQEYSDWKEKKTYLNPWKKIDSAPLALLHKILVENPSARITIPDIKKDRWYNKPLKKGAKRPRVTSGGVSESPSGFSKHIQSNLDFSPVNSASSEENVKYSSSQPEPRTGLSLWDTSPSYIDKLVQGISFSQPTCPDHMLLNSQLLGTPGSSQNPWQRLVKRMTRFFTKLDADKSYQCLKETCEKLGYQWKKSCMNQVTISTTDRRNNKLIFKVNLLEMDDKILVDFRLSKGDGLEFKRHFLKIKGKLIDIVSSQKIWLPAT
Sequence of ADCK3 (Q8NI60 163-647): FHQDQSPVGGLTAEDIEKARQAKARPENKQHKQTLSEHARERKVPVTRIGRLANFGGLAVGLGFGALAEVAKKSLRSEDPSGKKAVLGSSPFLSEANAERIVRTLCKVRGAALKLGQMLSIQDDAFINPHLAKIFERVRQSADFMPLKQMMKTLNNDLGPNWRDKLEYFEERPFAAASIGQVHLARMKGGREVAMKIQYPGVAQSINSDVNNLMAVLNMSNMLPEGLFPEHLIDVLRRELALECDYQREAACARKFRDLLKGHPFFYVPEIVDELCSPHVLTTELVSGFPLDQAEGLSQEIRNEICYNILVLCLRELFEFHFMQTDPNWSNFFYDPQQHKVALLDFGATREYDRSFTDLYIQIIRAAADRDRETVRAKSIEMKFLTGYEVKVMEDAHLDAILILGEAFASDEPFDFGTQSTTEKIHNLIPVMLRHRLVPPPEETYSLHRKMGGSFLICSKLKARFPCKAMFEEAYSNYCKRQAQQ
Sequence of TSSK3 (Q96PN8 whole entry): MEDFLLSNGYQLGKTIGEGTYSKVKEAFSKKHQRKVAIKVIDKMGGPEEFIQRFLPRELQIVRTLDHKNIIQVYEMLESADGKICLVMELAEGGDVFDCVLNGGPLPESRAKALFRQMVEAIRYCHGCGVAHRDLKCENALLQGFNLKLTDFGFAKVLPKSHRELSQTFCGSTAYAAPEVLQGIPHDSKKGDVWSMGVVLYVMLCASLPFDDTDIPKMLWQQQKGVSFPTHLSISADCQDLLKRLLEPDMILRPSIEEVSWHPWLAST

CN1C(=O)[C@@H](N2CCc3c(nn(Cc4ccccc4)c3C(N)=O)C2=O)COc2cc(Cl)ccc21 [Compound 10, (S)-2-benzyl-6-(8-chloro-5-methyl-4-oxo-2,3,4,5-tetrahydrobenzo[b][1,4]oxazepin-3-yl)-7-oxo-4,5,6,7-tetrahydro-2H-pyrazolo[3,4-c]pyridine-3-carboxamide]
80%: remaining binding at 1 µM [4] | remaining binding at 1 µM [15] | remaining binding at 1 µM [33]
92%: remaining binding at 0.1 µM ([1]; compound concentration 100 nM, Entrez CAMK1D) | remaining binding at 1 µM [2] | remaining binding at 1 µM [6] | remaining binding at 1 µM [8] | remaining binding at 1 µM [28] | remaining binding at 1 µM [32]
93%: remaining binding at 0.1 µM [13]
76%: remaining binding at 1 µM [34]
86%: remaining binding at 0.1 µM [5] | remaining binding at 0.1 µM ([17]; compound concentration 100 nM, Entrez CHEK1)
81%: remaining binding at 0.1 µM [24]
100%: remaining binding at 1 µM ([1]; 1000 nM) | remaining binding at 1 µM ([10]; 1000 nM) | remaining binding at 0.1 µM [14] | remaining binding at 1 µM ([16]; 1000 nM) | remaining binding at 0.1 µM ([16]; compound concentration 100 nM, Entrez GRK1) | remaining binding at 1 µM ([17]; 1000 nM) | remaining binding at 1 µM ([19]; 1000 nM) | remaining binding at 0.1 µM [21] | remaining binding at 1 µM ([22]; 1000 nM) | remaining binding at 0.1 µM [26] | remaining binding at 1 µM ([30]; 1000 nM) | remaining binding at 0.1 µM ([30]; compound concentration 100 nM, Entrez CABC1)
79%: remaining binding at 1 µM [18] | remaining binding at 1 µM [27]
95%: remaining binding at 0.1 µM ([22]; compound concentration 100 nM, Entrez IRAK3) | remaining binding at 0.1 µM [29]
90%: remaining binding at 1 µM [20]
94%: remaining binding at 1 µM [3] | remaining binding at 0.1 µM [11] | remaining binding at 0.1 µM [12] | remaining binding at 1 µM [31] | remaining binding at 1 µM [36]
91%: remaining binding at 1 µM [7] | remaining binding at 0.1 µM ([10]; compound concentration 100 nM, Entrez MAP3K5) | remaining binding at 0.1 µM ([19]; compound concentration 100 nM, Entrez CDKL3) | remaining binding at 1 µM [23] | remaining binding at 1 µM [35]
89%: remaining binding at 0.1 µM [9]
84%: remaining binding at 1 µM [25]
